Measurements taken from patent publication US10618916B2, “Heterocyclic compounds as immunomodulators” (Incyte Corporation, priority 2018, dated 2020).

Columns and labels:
PD-L1 = PD-L1 (Homo sapiens (Human), UniProt Q9NZQ7); experiment: PD-L1 whole blood internalization assay; type: cell-based; conditions: 24 HR, PD-L1 expression on CD14+ cells, human interferon γ
Experimental: Example D. PD-L1 Whole Blood Internalization Assay
To determine PD-L1 internalization in human whole blood, normal human blood (Biological Specialty Corp, Colmar. Pa.) was incubated in the presence or absence of a concentration range of test compounds and 1 ng/ml human interferon γ (R&D Systems Inc. Minn. […] Blood was then stained with PD-L1 (MIH1, eBioscience; or BD Biosciences San Jose, Calif.), CD14 (Life Technologies, Carlsbad, Calif.) for 30 minutes in the dark at room temperature. Whole Blood/red cells were lysed/fixed (lysis buffer BD Biosciences) for 5 minutes at 37° C. in the dark and then centrifuged at 1600 RPM for 5 minutes. Cells were resuspended in Stain Buffer (BD Bioscience, San Jose, Calif.) and transferred into 96 well round bottom plates (Corning). Cells were gated on CD14+(BD Biosciences) and PD-L1 expression determined by mean fluorescence intensity (MFI) (BD LSRFortessa™ X-20). IC50 determination was performed by fitting the curve of compound percent inhibition versus the log of the compound concentration using the GraphPad Prism 7.0 software.

[1] = tested on: U2OS/PD-L1 cells and Jurkat-PD-1-SHP cells; experiment: Src homology region 2 domain-containing phosphatase (SHP) assay; type: cell-based; conditions: Homo sapiens, U2OS
Experimental: Example B. Src Homology Region 2 Domain-Containing Phosphatase (SHP) Assay
U2OS/PD-L1 cells (DiscoveRx Corporation) were maintained in McCoy's 5A medium with addition of 10% FBS, 0.25 μg/ml Puromycin. After removing the culture media, the cell medium was replaced with assay medium (RPMI1640 medium with 1% FBS). The U2OS/PD-L1 cells were then added in 384-well black clear bottom assay plate (CELLCOAT® Tissue Culture Plates, Greiner Bio-One) at 5000 cells per well in 20 μL assay medium. Test compounds were prepared by serial dilution in DMSO and 125 nL compound were first transferred to the 384 REMP plate well (Thermofisher) by ECHO liquid handler (Labcyte) followed with addition of 27.5 μL assay medium. 5 μL/well compounds in the assay medium were transferred to the cell plate with 0.05% DMSO in the final assay at […]. Jurkat-PD-1-SHP cells (DiscoveRx Corporation) were cultured in RPMI1640 medium supplemented with 10% FBS, 250 μg/ml Hygromycin B, 500 μg/ml G418. After the replacement of culture media with assay medium, 5,000 Jurkat-PD-1-SHP cells in 20 μL were dispensed into each well. The assay plate was incubated at 37° C., 5% CO2 for 2 hours before 2.5 μL PathHunter reagent 1 (DiscoveRx Corporation) were added to each well. The assay plate was shaken for 1 min at 350 rpm in the dark followed with addition of 10 μL PathHunter reagent 2 (DiscoveRx Corporation). Chemiluminescent signal was recorded with TopCount reader (Perkin Elmer) after incubation at room temperature for 1 hour. Wells with DMSO were served as the positive controls and wells containing no cells were used as negative controls. IC50 determination was performed by fitting the curve of percentage of control activity versus the log of the compound concentration using the GraphPad Prism 6.0 software.

[2] = tested on: PD-L1 aAPC/CHO-K1 cells and Jurkat-PD-1-NFAT effector cells; experiment: Nuclear factor of activated T-cells (NFAT) assay; type: cell-based; conditions: Cricetulus griseus, CHO-K1
Experimental: Example C. Nuclear Factor of Activated T-Cells (NFAT) Assay
PD-L1 aAPC/CHO-K1 cells (Promega) were maintained in F-12 medium with addition of 10% FBS, 200 μg/ml Hygromycin B, 250 μg/ml Geneticin (G418). Jurkat-PD-1-NFAT effector cells (Promega) were cultured in RPMI 1640 medium supplemented with 10% FBS, 100 μg/ml Hygromycin B, 500 μg/ml G418. The culture media of PD-L1 aAPC/CHO-K1 cells were first replaced with assay medium (RPMI1640 medium with 1% FBS). The PD-L1 aAPC/CHO-K1 cells were then added in a white 384-well white clear bottom assay plate (CELLCOAT® Tissue Culture Plates, Greiner Bio-One) at 8000 per well in 10 μL assay medium. Test compounds were prepared by serial dilution in DMSO and 0.8 μL test compounds in DMSO were first transferred to the 384 REMP plate well (Thermofisher) by PlateMate Plus (Thermofisher) followed with addition of 50 μL plating medium. 5 μL compounds in the assay medium were transferred to the cells with 0.4% DMSO in the final assay at 2 μM. After removing the culture media, 10,000 Jurkat-PD-1-NFAT effector cells in 5 μL assay medium was dispensed into each well. The assay plate was incubated at 37° C., 5% CO2 for 24 hours. After the assay plate was equilibrated to room temp for 15 minutes, 20 µL/well of Bio-Glo™ reagent (Promega) were added. After 8 minutes incubation at room temperature, luminescence was read at with Pherastar microplate reader (BMG Labtech). The fold of induction (FOI) was calculated based on the ratio of luminescence normalized to the DMSO wells within each assay plate. The maximum percentage of induction was reported based on the ratio between the highest FOI of each compound and the maximum FOI of control compound within each assay plate. Wells with DMSO were served as the negative controls and wells containing control compound with the highest FOI were used as positive controls. EC50 determination was performed by fitting the curve of percent control activity versus the log of the compound concentration using the GraphPad Prism 6.0 software.

[3] = target: PD-1/PD-L1 protein/protein interaction (recombinant human PD-L1 and human PD-1) (Homo sapiens (Human), UniProt Q9NZQ7); experiment: Homogeneous Time-Resolved Fluorescence (HTRF) PD-1/PD-L1 binding assay
Experimental: Example A. Homogeneous Time-Resolved Fluorescence (HTRF) PD-1/PD-L1 Binding Assay
The assays were conducted in a standard black 384-well polystyrene plate with a final volume of 20 μL. Inhibitors were first serially diluted in DMSO and then added to the plate wells before the addition of other reaction components. The final concentration of DMSO in the assay was 1%. The assays were carried out at 25° C. in the PBS buffer (pH 7.4) with 0.05% Tween-20 and 0.1% BSA. Recombinant human PD-L1 protein (19-238) with a His-tag at the C-terminus was purchased from AcroBiosystems (PD1-H5229). Recombinant human PD-1 protein (25-167) with Fc tag at the C-terminus was also purchased from AcroBiosystems (PD1-H5257). PD-L1 and PD-1 proteins were diluted in the assay buffer and 10 μL was added to the plate well. Plates were centrifuged and proteins were preincubated with inhibitors for 40 minutes. The incubation was followed by the addition of 10 μL of HTRF detection buffer supplemented with Europium cryptate-labeled anti-human IgG (PerkinElmer-AD0212) specific for Fc and anti-His antibody conjugated to SureLight®-Allophycocyanin (APC, PerkinElmer-AD0059H). After centrifugation, the plate was incubated at 25° C. for 60 min. before reading on a PHERAstar FS plate reader (665 nm/620 nm ratio). Final concentrations in the assay were—3 nM PD1, 10 nM PD-L1, 1 nM europium anti-human IgG and 20 nM anti-His-Allophycocyanin. IC50 determination was performed by fitting the curve of percent control activity versus the log of the inhibitor concentration using the GraphPad Prism 5.0 software.

PD-L1, sequence (Q9NZQ7 19-290): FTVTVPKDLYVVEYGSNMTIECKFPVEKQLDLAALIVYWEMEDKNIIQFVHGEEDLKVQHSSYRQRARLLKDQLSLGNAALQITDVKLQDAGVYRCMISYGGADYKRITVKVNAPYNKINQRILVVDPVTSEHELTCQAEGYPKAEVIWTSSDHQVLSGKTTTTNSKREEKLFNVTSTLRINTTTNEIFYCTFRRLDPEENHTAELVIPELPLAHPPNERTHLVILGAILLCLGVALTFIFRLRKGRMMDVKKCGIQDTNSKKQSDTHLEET
PD-1/PD-L1 protein/protein interaction (recombinant human PD-L1 and human PD-1), sequence (Q9NZQ7 19-238): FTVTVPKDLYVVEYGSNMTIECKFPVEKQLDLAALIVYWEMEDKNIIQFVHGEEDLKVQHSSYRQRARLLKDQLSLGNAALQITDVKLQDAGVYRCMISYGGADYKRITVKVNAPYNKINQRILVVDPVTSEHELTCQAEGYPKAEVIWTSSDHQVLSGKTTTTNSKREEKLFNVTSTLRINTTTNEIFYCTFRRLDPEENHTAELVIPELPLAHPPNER

SMILES | IC50 (PD-L1) [nM] | IC50 [1] [nM] | EC50 [2] [nM] | IC50 [3] [nM]
Cn1c(C(=O)Nc2cccc(-c3cccc(NC(=O)c4nc5c(n4C)CCN(CCC46CCC(C(=O)O)(CC4)C6)C5)c3Cl)c2Cl)nc2c1CCN(CCO)C2 [Example 15, 4-(2-(2-((2,2′-dichloro-3′-(5-(2-hydroxyethyl)-1-methyl-4,5,6,7-tetrahydro-1H-imidazo[4,5-c]pyridine-2-carboxamido)-[1,1′-biphenyl]-3-yl)carbamoyl)-1-methyl-1,4,6,7-tetrahydro-5H-imidazo[4,5-c]pyridin-5-yl)ethyl)bicyclo[2.2.1]heptane-1-carboxylic acid] | 10 to 100 | ≤ 10 | 10 to 100 | ≤ 5
Cn1c(C(=O)Nc2cccc(-c3cccc(NC(=O)c4nc5c(n4C)CCN([C@H]4CC[C@@](C)(C(=O)O)CC4)C5)c3Cl)c2Cl)nc2c1CCN(CCC13CCC(C(=O)O)(CC1)C3)C2 [Example 65, 4-(2-(2-((3′-(5-(cis-4-carboxy-4-methylcyclohexyl)-1-methyl-4,5,6,7-tetrahydro-1H-imidazo[4,5-c]pyridine-2-carboxamido)-2,2′-dichloro-[1,1′-biphenyl]-3-yl)carbamoyl)-1-methyl-1,4,6,7-tetrahydro-5H-imidazo[4,5-c]pyridin-5-yl)ethyl)bicyclo[2.2.1]heptane-1-carboxylic Acid] | 10 to 100 | ≤ 10 | 10 to 100 | ≤ 5
Cc1c(NC(=O)c2nc3c(n2C)CCN(CCC24CCC(C(=O)O)(CC2)C4)C3)cccc1-c1cccc(NC(=O)c2nc3c(n2C)CCN(C2CCOCC2)C3)c1Cl [Example 38, 4-(2-(2-((2′-chloro-2-methyl-3′-(1-methyl-5-(tetrahydro-2H-pyran-4-yl)-4,5,6,7-tetrahydro-1H-imidazo[4,5-c]pyridine-2-carboxamido)-[1,1′-biphenyl]-3-yl)carbamoyl)-1-methyl-1,4,6,7-tetrahydro-5H-imidazo[4,5-c]pyridin-5-yl)ethyl)bicyclo[2.2.1]heptane-1-carboxylic acid] | 10 to 100 | ≤ 10 | 10 to 100 | ≤ 5
Cc1c(NC(=O)c2nc3c(n2C)CCN(C2CCOCC2)C3)cccc1-c1cccc(NC(=O)c2nc3c(n2C)CCN(CCC24CCC(C(=O)O)(CC2)C4)C3)c1Cl [Example 28, 4-(2-(2-((2-chloro-2′-methyl-3′-(1-methyl-5-(tetrahydro-2H-pyran-4-yl)-4,5,6,7-tetrahydro-1H-imidazo[4,5-c]pyridine-2-carboxamido)-[1,1′-biphenyl]-3-yl)carbamoyl)-1-methyl-1,4,6,7-tetrahydro-5H-imidazo[4,5-c]pyridin-5-yl)ethyl)bicyclo[2.2.1]heptane-1-carboxylic acid] | 10 to 100 | – | 10 to 100 | ≤ 5
Cc1c(NC(=O)c2nc3c(n2C)CCN(CCO)C3)cccc1-c1cccc(NC(=O)c2nc3c(n2C)CCN(CCC24CCC(C(=O)O)(CC2)C4)C3)c1Cl [Example 33, 4-(2-(2-((2-chloro-3′-(5-(2-hydroxyethyl)-1-methyl-4,5,6,7-tetrahydro-1H-imidazo[4,5-c]pyridine-2-carboxamido)-2′-methyl-[1,1′-biphenyl]-3-yl)carbamoyl)-1-methyl-1,4,6,7-tetrahydro-5H-imidazo[4,5-c]pyridin-5-yl)ethyl)bicyclo[2.2.1]heptane-1-carboxylic acid] | 10 to 100 | – | 10 to 100 | ≤ 5
Cn1c(C(=O)Nc2cccc(-c3cccc(NC(=O)c4nc5c(n4C)CCN(CCC46CCC(C(=O)O)(CC4)C6)C5)c3Cl)c2Cl)nc2c1CCN(CCCCC(=O)O)C2 [Example 63, 4-(2-(2-((3′-(5-(4-carboxybutyl)-1-methyl-4,5,6,7-tetrahydro-1H-imidazo[4,5-c]pyridine-2-carboxamido)-2,2′-dichloro-[1,1′-biphenyl]-3-yl)carbamoyl)-1-methyl-1,4,6,7-tetrahydro-5H-imidazo[4,5-c]pyridin-5-yl)ethyl)bicyclo[2.2.1]heptane-1-carboxylic acid] | 10 to 100 | – | 10 to 100 | ≤ 5
Cn1c(C(=O)Nc2cccc(-c3cccc(NC(=O)c4nc5c(n4C)CCN(C4CCN(C(N)=O)CC4)C5)c3Cl)c2Cl)nc2c1CCN(CCC13CCC(C(=O)O)(CC1)C3)C2 [Example 7, 4-(2-(2-((3′-(5-(1-carbamoylpiperidin-4-yl)-1-methyl-4,5,6,7-tetrahydro-1H-imidazo[4,5-c]pyridine-2-carboxamido)-2,2′-dichloro-[1,1′-biphenyl]-3-yl)carbamoyl)-1-methyl-1,4,6,7-tetrahydro-5H-imidazo[4,5-c]pyridin-5-yl)ethyl)bicyclo[2.2.1]heptane-1-carboxylic acid] | 10 to 100 | – | 10 to 100 | ≤ 5
CN(C)C(=O)CCCCN1CCc2c(nc(C(=O)Nc3cccc(-c4cccc(NC(=O)c5nc6c(n5C)CCN(CCC57CCC(C(=O)O)(CC5)C7)C6)c4Cl)c3Cl)n2C)C1 [Example 64, 4-(2-(2-((2,2′-dichloro-3′-(5-(5-(dimethylamino)-5-oxopentyl)-1-methyl-4,5,6,7-tetrahydro-1H-imidazo[4,5-c]pyridine-2-carboxamido)-[1,1′-biphenyl]-3-yl)carbamoyl)-1-methyl-1,4,6,7-tetrahydro-5H-imidazo[4,5-c]pyridin-5-yl)ethyl)bicyclo[2.2.1]heptane-1-carboxylic Acid] | 10 to 100 | – | ≤ 10 | ≤ 5
